# Measurements as given in patent US20120184624A1, “Treatment of Alzheimer's Disease” (priority 2010, published 2012).
# Read-outs that look alike come from different tables or passages of the source.
# Key:
# tau [1] = format: cell-based, mouse
# Method: (§1) Primary cortical neurons were isolated from brain of wt or transgenic (Mapt^tm1(EGFP)klt Tg(MAPT)8cPdav/J; Jackson Laboratory) embryos at day 14.5. Cortices were collected in DMEM (Lonza) and cells were dissociated by incubation with Trypsin/EDTA for 6.5 min at 37° C. Cells were then diluted in neurobasal medium (Gibco-BRL) containing B27 supplement (Gibco BRL). Cells were plated at a density of 4.0×10^5 onto 0.2 mg/ml poly-D-lysin (Sigma) and 2 μg/ml Laminin (Sigma) coated 12 well plates. Neurons were incubated at 37° C. with 8% CO2. One hour after seeding a complete change of medium was performed. Later on, each 96 hours half volumes of the medium were replaced by fresh medium. After 7 days in culture neurons were treated.
# (§2) Cells were incubated with the respective substances as follows: Metformin (Sigma) at final concentrations up to 2.5 mM for 1 to >24 hours, okadaic acid (Sigma) at final concentrations from 1 nM to 10 nM for 4 h, Fostricien (Sigma) at final concentration of 1 μM for 4 h and AICAR (cell signalling) at final concentration of 5 mM for 0.5-16 h. For cell treatment without insulin, medium containing B27+insulin supplement was replaced with medium containing B27-supplement without insulin 24 h before treatment. 3 groups of 2 mice were treated with or without 5 mg/l metformin in the drinking water.
# (§3) Cell pellets were homogenized in Magic-Mix (48% UREA, 15 mM Tris-HCL pH 7.5, 8.7% Glycerin, 1% SDS, 0.004% Bromphenolblue, 143 mM Mercaptoethanol), sonicated and boiled for 5 min at 95° C. Proteins were resolved on 8 or 10% SDS gels and blotted onto PVDF-membranes (Roche). Antibodies used in this study were purchased from the following companies: Tau-5 (Biosource), anti-human PHF pSer202 (Thermo scientific), Tau pSer356 (Biosource), Tau pSer262 (Biosource), Tau pSer396 (Sigma), Actin (Sigma), ACC (cell signalling), ACC pSer79 (cell signalling), phospho-S6 ribosomal protein pSer241/244 (cell signalling), p70S6 Kinase (cell signalling), p70S6K pThr421/pSer424 (cell signalling), mTOR (cell signalling), AMPK (cell signallling, AMPK pThr172 (cell singnaling), HRP-anti-rabbit (Amersham), HRP-anti-mouse (Dianova). The resulting bands were quantified using Imagequant5.2. Statistical analyses were performed using SigmaStat software package (v 3.0, SPSS, USA). For timecourse or dose-response studies, data were analyses by one-way ANOVA with post hoc Dunnett's or Bonferonni test to accommodate for multiple comparisons. A Student's t-test was used for two-group comparisons, as appropriate.
# human tau = experiment: Tau phosphorylation by Western blot in primary cortical neurons of mice expressing human tau; format: cell-based; conditions: increasing concentration of metformin over 4 hours
# Method: as §1
# as §2, with “water. […]” for “water.”
# [2] = system: ribosomal protein S6 (S241/244); experiment: Phosphorylation of ribosomal protein S6 (mTORC1 signalling) in primary neurons from wild-type mice; format: cell-based, mouse
# Method: as §1
# as §2, with “water. […]” for “water.”
# ribosomal protein S6 = experiment: Phosphorylation of S6 in rat hepatoma cell line H4IIE; format: cell-based; conditions: 2.5 mM, 16 hours
# Method: as §3
# p70S6kinase = experiment: Phosphorylation of p70S6kinase in primary cortical neurons; format: cell-based, mouse; conditions: 2.5 mM metformin over increasing time intervals
# Method: as §1, §2, §3
# primary cortical neurons = experiment: TUNEL assay on primary cortical neurons; format: cell-based, mouse; conditions: increasing concentrations of metformin, concentrations sufficient to induce tau dephosphorylation
# Method: Primary neurons were grown on coverslips with a density of 2×10^5 per 12 well. TUNEL assays were performed using TUNEL enzyme (Roche) and TUNEL label (Roche) following the manufacturer's instructions.
# ACC = experiment: Phosphorylation of the AMPK target ACC (Ser79) in primary cortical neurons; format: cell-based, mouse; conditions: 2.5 mM metformin, increasing time intervals
# Method: as §1
# as §2, with “3 groups of 2 mice were treated with or without 5 mg/l metformin in the drinking water.” left out
# as §3, with “Proteins were resolved on 8 or 10% SDS gels and blotted onto PVDF-membranes (Roche).” left out, “Statistical analyses were performed using SigmaStat software package (v 3.0, SPSS, USA). For timecourse or dose-response studies, data were analyses by one-way ANOVA with post hoc Dunnett's or Bonferonni test to accommodate for multiple comparisons. A Student's t-test was used for two-group comparisons, as appropriate.” left out
# AMPK [3] = experiment: Phosphorylation of AMPK (pThr 172) in primary cortical neurons; format: cell-based, mouse
# Method: as §1
# as §2, with “3 groups of 2 mice were treated with or without 5 mg/l metformin in the drinking water.” left out
# as §3, with “Proteins were resolved on 8 or 10% SDS gels and blotted onto PVDF-membranes (Roche).” left out, “Statistical analyses were performed using SigmaStat software package (v 3.0, SPSS, USA). For timecourse or dose-response studies, data were analyses by one-way ANOVA with post hoc Dunnett's or Bonferonni test to accommodate for multiple comparisons. A Student's t-test was used for two-group comparisons, as appropriate.” left out
# GSK3β = experiment: Phosphorylation of GSK3β (pSer9) in primary cortical neurons; format: cell-based, mouse; conditions: 2.5 mM metformin over increasing time intervals
# Method: as §1
# Cell pellets were homogenized in Magic-Mix (48% UREA, 15 mM Tris-HCL pH 7.5, 8.7% Glycerin, 1% SDS, 0.004% Bromphenolblue, 143 mM Mercaptoethanol), sonicated and boiled for 5 min at 95° C. Proteins were resolved on 8 or 10% SDS gels and blotted onto PVDF-membranes (Roche). […]
# [4] = molecular target: T1, purified PP2Ac (catalytic subunit of PP2A) (Homo sapiens, UniProt P67775); experiment: PP2A activity assay (malachite green), purified PP2Ac; format: biochemical; conditions: 10 mM metformin, 1 hour
# T1 construct: purchased upstate
# T1 sequence (P67775 whole entry): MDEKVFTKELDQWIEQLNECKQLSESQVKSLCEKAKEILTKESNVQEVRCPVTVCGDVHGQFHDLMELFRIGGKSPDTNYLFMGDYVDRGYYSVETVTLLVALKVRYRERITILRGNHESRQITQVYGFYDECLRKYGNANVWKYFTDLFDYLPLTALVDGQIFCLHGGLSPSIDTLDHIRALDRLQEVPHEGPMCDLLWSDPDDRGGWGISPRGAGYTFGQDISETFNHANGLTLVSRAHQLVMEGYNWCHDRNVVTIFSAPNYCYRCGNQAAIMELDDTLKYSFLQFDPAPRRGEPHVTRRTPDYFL
# Method: (§4) Either purified PP2Ac (upstate), cell lysates or PP2A-holoenzymes, which were purified by immunoprecipitation using a PP2A-A-subunit antibody (Millipore), were incubated with or without 10 mM metformin or 10 nM okadaic acid for 1 hour. Afterwards PP2A phosphatase activity was determined using a malachite green assay kit (upstate) following the manufacturer's instructions.
# PP2A-holoenzymes = experiment: PP2A activity assay (malachite green), PP2A-holoenzymes immunopurified from HeLa cell lysates; format: biochemical; conditions: 10 mM metformin, 1 hour
# Method: as §4
# PP2A = molecular target: T2, PP2A (Mus musculus, UniProt P63330); experiment: PP2A activity in lysates of metformin-treated primary neurons; format: cell-based; set-up: dose or concentration left out as unconfirmed
# T2 construct: treated primary neurons with metformin and analyzed PP2A activity in the cell lysates; endogenous in cells; host or cells: primary neurons
# T2 sequence (P63330 whole entry): as the sequence (P67775 whole entry) above, with V5L counted along it
# Method: Afterwards PP2A phosphatase activity was determined using a malachite green assay kit (upstate) following the manufacturer's instructions.
# MID1-α4-PP2Ac complex = molecular target: T3, MID1-α4-PP2Ac complex (Homo sapiens, UniProt P67775+P78318); experiment: Affinity chromatography of the PP2Ac-MID1 B-box-α4 complex; format: binding; conditions: metformin at different concentrations in the washing buffer
# T3 construct: made in house; host or cells: E. coli BL21
# T3 sequence (P67775 whole entry): as the sequence (P67775 whole entry) above
# T3 sequence (P78318 whole entry): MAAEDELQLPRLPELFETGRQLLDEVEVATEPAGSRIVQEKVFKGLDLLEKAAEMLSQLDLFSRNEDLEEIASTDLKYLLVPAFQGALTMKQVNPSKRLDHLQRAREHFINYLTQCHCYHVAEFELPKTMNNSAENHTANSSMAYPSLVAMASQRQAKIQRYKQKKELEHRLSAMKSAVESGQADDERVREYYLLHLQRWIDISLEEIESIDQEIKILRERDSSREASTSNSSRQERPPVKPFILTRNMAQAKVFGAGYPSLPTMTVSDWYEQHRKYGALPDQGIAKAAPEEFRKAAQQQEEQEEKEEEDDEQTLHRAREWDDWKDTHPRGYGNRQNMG
# Method: The MID1-B-box-domains, α4, or HIS-tagged PP2Ac were expressed in E. coli BL21. Cells were lysed by French press in buffer A (50 mM Na-phosphate, 300 mM NaCl, 20 mM imidazole, pH 8.0). Lysates were mixed and PP2A-protein complexes were immobilized on Ni-NTA columns (Qiagen) and washed extensively with buffer A containing 10% glycerol and 0.25% Tween20. After washing columns were eluted with buffer A containing different concentrations of metformin. Elutions were analyzed on SDS-Gels followed by Coomassie staining.
# α4-PP2Ac association = molecular target: T4, α4-PP2Ac association (Homo sapiens, UniProt P67775+P78318); experiment: Co-immunoprecipitation of PP2Ac and V5-tagged α4 in HeLa cell lysates; format: binding; conditions: 2.5 mM metformin added to lysates of α4-V5 expressing HeLa cells
# T4 construct: expressed in transfected cells; host or cells: HeLa
# T4 sequence (P78318 whole entry): as above
# T4 sequence (P67775 whole entry): as the sequence (P67775 whole entry) above
# S6 = experiment: Brain S6 phosphorylation in mice fed metformin in the drinking water; format: in vivo, mouse; conditions: 5 mg/ml in the drinking water for 16-24 days
# Method: as §2, with “3 groups of 2 mice were treated with or without 5 mg/l metformin in the drinking water.” left out
# (§5) Mice were decapitated and brains were rapidly dissected in nitrogen. […]
# as §3, with “Proteins were resolved on 8 or 10% SDS gels and blotted onto PVDF-membranes (Roche).” left out, “Statistical analyses were performed using SigmaStat software package (v 3.0, SPSS, USA). For timecourse or dose-response studies, data were analyses by one-way ANOVA with post hoc Dunnett's or Bonferonni test to accommodate for multiple comparisons. A Student's t-test was used for two-group comparisons, as appropriate.” left out
# AMPK [5] = experiment: Brain AMPK phosphorylation in mice fed metformin in the drinking water; format: in vivo, mouse; conditions: 5 mg/ml in the drinking water for 16-24 days
# Method: as §2, with “3 groups of 2 mice were treated with or without 5 mg/l metformin in the drinking water.” left out
# as §5
# as §3, with “Proteins were resolved on 8 or 10% SDS gels and blotted onto PVDF-membranes (Roche).” left out, “Statistical analyses were performed using SigmaStat software package (v 3.0, SPSS, USA). For timecourse or dose-response studies, data were analyses by one-way ANOVA with post hoc Dunnett's or Bonferonni test to accommodate for multiple comparisons. A Student's t-test was used for two-group comparisons, as appropriate.” left out
# tau [6] = experiment: Brain tau phosphorylation in mice fed metformin in the drinking water; format: in vivo, mouse; conditions: 5 mg/ml in the drinking water for 16-24 days
# Method: as §2, with “3 groups of 2 mice were treated with or without 5 mg/l metformin in the drinking water.” left out
# Mice were decapitated and brains were rapidly dissected in nitrogen. Brains were homogenized in ice-cold lysis buffer containing 10 mmol/l Tris pH 7.5, 150 mM NaCl, 1 mM EDTA, 1 mM EGTA, 1% NP40, protease inhibitors(complete mini, Roche), phosphatase inhibitors (PhosStop, Roche). Lysates were sonicated and centrifuged at 25000 g for 10 min at 4° C.
# as §3
# [7] = dosages applied to patients with Type II Diabetes; cited from earlier work
# [8] = 2 mg/ml in the drinking water fed to mice for 6 days; cited from earlier work
# [9] = 2.5 mM, different time intervals, observed after 2-4 hours
structure (smiles),measurement,setting,value
"CN(C)C(=N)N=C(N)N [metformin, Metformin]",effect on Ser202 phosphorylation of okadaic acid treated cells,"tau [1]; 10 nM okadaic acid prior to 2.5 mM metformin, 4 hours",no effect
same,phosphorylation of Ser202,"tau [1]; 100 nM, longer treatment (>24 hours)",decreased slightly
same,effect on Ser202 phosphorylation of fostriecin pre-treated cells,"tau [1]; 1 μM fostriecin prior to 2.5 mM metformin, 4 hours",did not have any effect
same,phosphorylation of Ser202,"tau [1]; 10 μM, longer treatment (>24 hours)",significantly reduced
same,phosphorylation of Ser202,tau [1]; 2.5 mM metformin alone over 4 hours,decreased significantly
same,"de-phosphorylation of PP2A dependent tau epitopes, dependence on time and dosage","tau [1]; 2.5 mM over time (Ser202, Ser262, Ser356), increasing concentration over 4 hours (Ser202)",increased with time (FIG. 2a) and dosage
same,phosphorylation of PP2A dependent tau epitope Ser202,tau [1]; [9],significant decrease
same,phosphorylation of PP2A dependent tau epitope Ser262,tau [1]; [9],significant decrease
same,phosphorylation of PP2A dependent tau epitope Ser356,tau [1]; [9],significant decrease
same,phosphorylation of the PP2A insensitive epitope Ser396,"tau [1]; 2.5 mM, increasing time intervals",did not change
same,dephosphorylation of tau (Ser 202),"tau [1]; 2.5 mM, medium without insulin",strong dephosphorylation effect
same,phosphorylation of human tau at Ser 202,human tau,reacted in the same way
same,S6 phosphorylation (S241/244),"[2]; 2.5 mM, within 4 h of exposure",significant dephosphorylation
same,S6 phosphorylation (S241/244),"[2]; increasing concentrations of metformin, 16 hours",dose dependent decrease
same,ability to dephosphorylate S6,ribosomal protein S6,clearly apparent
same,phosphorylation status of p70S6kinase,p70S6kinase,Results were confirmed
same,phosphorylation status of p70S6kinase,p70S6kinase; listed as Metformin,decrease of pS6kinase phosphorylation
same,"programmed cell death (percentage of apoptotic cells, TUNEL)",primary cortical neurons,did not cause a significant increase
same,ACC phosphorylation (Ser79),ACC,neither metformin (FIG. 4a) nor phenformin (FIG. 12) had an effect
same,AMPK phosphorylation (pThr 172),AMPK [3]; 2.5 mM for 10 hours,does induce AMPK phosphorylation significantly
same,AMPK phosphorylation (pThr 172),"AMPK [3]; 2.5 mM, shorter intervals of incubation than 10 hours",no significant effect
same,AMPK phosphorylation (pThr 172),AMPK [3]; smaller amounts than 2.5 mM for 24 hours,no significant effect
same,phosphorylation of GSK3β at position Ser 9 (de-phosphorylation activates the enzyme),GSK3β,reduces the phosphorylation
same,phosphorylation of GSK3β at position Ser 9 (de-phosphorylation activates the enzyme),GSK3β; listed as Metformin,increases the activity of GSK3β
same,PP2A activity of purified PP2Ac,[4],no influence
same,activity of the immunopurified PP2A protein complex,PP2A-holoenzymes,significantly increased
same,phosphatase (PP2A) activity in cell lysates,PP2A,significantly increased phosphatase activity
same,elution of MID1 B-boxes and α4 from immobilized HIS-tagged PP2Ac,MID1-α4-PP2Ac complex,could be eluted from the column by adding metformin
same,amount of PP2Ac associated with α4,α4-PP2Ac association,dissociation of α4 from PP2Ac
same,brain S6 phosphorylation,S6,significantly de-phosphorylated
same,brain AMPK phosphorylation (pThr 172),AMPK [5],no induction
same,brain de-phosphorylated form of tau at position Ser 202 (tau-1 antibody),tau [6],increase
same,brain tau Ser202 phosphorylation,tau [6],significant decrease
same,brain tau Ser262 phosphorylation,tau [6],significant decrease
same,brain tau Ser 396 phosphorylation (PP2A independent epitope),tau [6],no effect
same,peak plasma concentrations,[7],around 12 μM
same,level of metformin in the brain,[8],1000 nM
